SMILES strings stand for the structures.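 All cell lines were grown in 96-well plates and treated with compound for 48 hours. GI50: concentration for 50% inhibition of growth.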 Active and inactive are the calls of the source. No stated cut-off is given here; in the data, active = GI50 up to about 1.1 µM and inactive = higher. Some results are limits rather than exact numbers.

This is an account of results in ChEMBL document CHEMBL1201862, “PubChem BioAssay data set” (2004).

Test systems include OVCAR-4; SF-268; M14; OVCAR-3; HOP-62; COLO 205; Malme-3M; HCC 2998; SNB-19; BT-549; UACC-257; SK-MEL-28; UACC-62; HT-29; RXF 393; MCF7; SF-539; NCI-H522; ACHN; OVCAR-8.
Holding throughout (test): inhibition of tumour cell growth, NCI panel, 48 h

Regarding `O=[N+]([O-])/C(C(Cl)=C(Cl)Cl)=C(/Sc1ccccc1)N1CCCCC1`, the GI50 with OVCAR-4 was > 66.7 µM (inactive); with SF-268, > 45.6 µM (inactive); with M14, > 69.2 µM (inactive); in the experiment with OVCAR-3, > 63.7 µM (inactive); in the experiment on HOP-62, > 59.3 µM (inactive); in the experiment with COLO 205, > 100 µM (inactive). The GI50 in the experiment on Malme-3M is 19.8 µM (inactive); in the experiment on HCC 2998, > 100 µM (inactive); with SNB-19, > 58.7 µM (inactive); in the experiment with BT-549, > 100 µM (inactive); in the experiment on UACC-257 it was 54.2 µM (inactive); in the experiment with SK-MEL-28, > 100 µM (inactive). Moreover, the GI50 was 13.9 µM (inactive) in the experiment on UACC-62; > 100 µM (inactive) with HT-29; 5.08 µM (inactive) in the experiment with RXF 393; > 100 µM (inactive) with MCF7; > 100 µM (inactive) with SF-539; 13.6 µM (inactive) in the experiment with NCI-H522. The GI50 in the experiment on ACHN was > 100 µM (inactive); in the experiment with OVCAR-8 it was > 58.2 µM (inactive).

Consider `COc1cc(NS(C)(=O)=O)ccc1Nc1c2ccccc2nc2c1[nH]c1ccc(NC3OC(CO)C(O)C(O)C3O)cc12` (stereo not given), for which the GI50 is 1.36 µM (inactive) with OVCAR-4; 0.018 µM (active) in the experiment on SF-268; 0.0399 µM (active) in the experiment on M14; 0.538 µM (active) in the experiment on OVCAR-3; < 0.0163 µM (active) in the experiment with HOP-62; 0.26 µM (active) in the experiment with COLO 205. Also, the GI50 with Malme-3M is 0.0468 µM (active); with HCC 2998 it was 0.169 µM (active); in the experiment with SNB-19 it was 0.0242 µM (active); in the experiment with BT-549, 1.3 µM (inactive); in the experiment on UACC-257, 0.74 µM (active); with SK-MEL-28, 0.122 µM (active). Also, the GI50 in the experiment on UACC-62 is 0.0213 µM (active); in the experiment with HT-29 it was 0.159 µM (active); in the experiment on RXF 393 it was 0.144 µM (active); with MCF7 it was 0.023 µM (active); in the experiment on SF-539, < 0.01 µM (active); in the experiment with NCI-H522, 0.0923 µM (active). The GI50 with ACHN was < 0.0161 µM (active); in the experiment on OVCAR-8 it was 0.0504 µM (active).

For `S=C1Cc2c(-c3ccccc3)cc(-c3ccc(Cl)cc3)nc2-c2ccccc2N1`, the GI50 in the experiment with OVCAR-4 was 0.42 µM (active); in the experiment on SF-268, 1.89 µM (inactive); in the experiment with M14 it was 3.97 µM (inactive); in the experiment with OVCAR-3, 3.07 µM (inactive); with HOP-62, 1.39 µM (inactive); in the experiment with COLO 205 it was 5.57 µM (inactive). Moreover, the GI50 with Malme-3M was 3.33 µM (inactive); in the experiment with HCC 2998, 5.07 µM (inactive); with SNB-19, 1.56 µM (inactive); in the experiment with BT-549, 5.56 µM (inactive); with UACC-257 it was 4.7 µM (inactive); in the experiment with SK-MEL-28, 3.4 µM (inactive). Moreover, the GI50 is 2.45 µM (inactive) with UACC-62; 2.65 µM (inactive) in the experiment on HT-29; 3.06 µM (inactive) in the experiment on RXF 393; 15.1 µM (inactive) with MCF7; 3.08 µM (inactive) in the experiment on SF-539; 2.06 µM (inactive) in the experiment with NCI-H522. In addition, the GI50 is 1.04 µM (active) in the experiment on ACHN and 0.982 µM (active) with OVCAR-8.

Take `N#Cc1nnn(-c2ccccc2)c1O`: the GI50 in the experiment on OVCAR-4, in the experiment on SF-268, in the experiment with M14, with OVCAR-3, in the experiment on HOP-62 and in the experiment with COLO 205 was > 100 µM (inactive) throughout. Further, the GI50 in the experiment on Malme-3M, in the experiment with HCC 2998, with SNB-19, in the experiment with BT-549, in the experiment with UACC-257 and in the experiment on SK-MEL-28 was > 100 µM (inactive) throughout. Moreover, the GI50 with UACC-62, with HT-29, in the experiment with RXF 393, in the experiment with MCF7, with SF-539 and in the experiment with NCI-H522 was > 100 µM (inactive) throughout. In addition, the GI50 with ACHN and with OVCAR-8 was > 100 µM (inactive) throughout.

For `CCCC[C@@H](C)/C=C1\CN2CCC[C@H]2[C@@](C)(OCc2ccccc2)[C@@H]1O`, the GI50 with OVCAR-4 is > 50 µM (inactive); in the experiment on SF-268, > 29.4 µM (inactive); in the experiment on M14 it was > 50 µM (inactive); in the experiment on OVCAR-3, > 17.5 µM (inactive); in the experiment with HOP-62, 5.98 µM (inactive); with COLO 205, > 50 µM (inactive). The GI50 was > 50 µM (inactive) in the experiment with Malme-3M; > 50 µM (inactive) with HCC 2998; > 23.8 µM (inactive) in the experiment on SNB-19; > 50 µM (inactive) in the experiment with BT-549; > 17.6 µM (inactive) in the experiment with UACC-257; > 43 µM (inactive) in the experiment on SK-MEL-28. The GI50 in the experiment with UACC-62 is > 50 µM (inactive); in the experiment with HT-29, > 50 µM (inactive); with RXF 393 it was > 44.6 µM (inactive); in the experiment on MCF7, > 50 µM (inactive); in the experiment on SF-539, > 22.2 µM (inactive); in the experiment with NCI-H522, > 27.9 µM (inactive). The values for the GI50 in the experiment on ACHN and in the experiment on OVCAR-8 were > 50 µM (inactive) and > 47.4 µM (inactive), respectively.
